The test system of this assay is CSM 14.1 cells, thapsigargin ER-stress death rescue, ATPlite 24 h. Description: thapsigargin death rescue by analogs – CSM14.1 cells, ATP luminescence, benzodiazepine series, SAR follow-up (AID 1247).

Activity calls are given as the source filed them.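 The calls were made as follows: active = EC50 below a set limit, with activity reproduced on retest from dry powder; inactive = the rest.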

Take `CC(C)Oc1ccccc1C1Nc2ccccc2NC2=C1C(=O)CC(c1ccc(Cl)cc1)C2` (configuration not stated): the EC50 (commonly the midpoint of the concentration-response curve) is 6.03 µM.

As to `COc1ccc(C2CC(=O)C3=C(C2)Nc2ccccc2NC3c2ccccc2OC(C)C)cc1` (configuration not stated), the EC50 is 17.7 µM. On to `COc1ccc(C2CC(=O)C3=C(C2)Nc2ccccc2NC3c2cccc(Oc3ccccc3)c2)cc1OC` (configuration not stated), for which the EC50 was 8.07 µM.

Take `COc1ccc(C2CC(=O)C3=C(C2)Nc2ccccc2NC3c2ccccc2C(F)(F)F)cc1OC` (configuration not stated): the EC50 is 17.4 µM. On to `COc1ccc(C2CC(=O)C3=C(C2)Nc2ccccc2NC3c2ccc(F)c(F)c2)cc1` (configuration not stated), for which the EC50 was 20.9 µM. Consider `CCOc1cc(C2Nc3ccccc3NC3=C2C(=O)CC(c2ccc(OC)cc2)C3)cc(Cl)c1O` (configuration not stated), for which the EC50 was 23.5 µM. Consider `COc1ccc(C2CC(=O)C3=C(C2)Nc2ccccc2NC3c2c(F)cccc2Cl)cc1` (configuration not stated), for which the EC50 is 13.5 µM. For the compound `COc1ccc(C2CC(=O)C3=C(C2)Nc2ccccc2NC3c2cccc(O)c2)cc1` (configuration not stated), the EC50 was > 100 µM (inactive).

As to `COc1ccc(C2CC(=O)C3=C(C2)Nc2ccccc2NC3c2c(Cl)cccc2Cl)cc1` (configuration not stated), the EC50 was 24.4 µM. As to `COc1ccc(C2CC(=O)C3=C(C2)Nc2ccccc2NC3c2ccc3ccccc3c2)cc1` (configuration not stated), the EC50 was 11.5 µM. For `COc1ccc(C2CC(=O)C3=C(C2)Nc2ccccc2NC3c2ccccc2C)cc1OC` (configuration not stated) the value was 35.8 µM. The figure for `O=C1CC(c2ccccc2)CC2=C1C(c1cccc3ccccc13)Nc1ccccc1N2` (configuration not stated) is 16 µM; for `COc1ccc(C2CC(=O)C3=C(C2)Nc2ccccc2NC3c2cc(C)ccc2C)cc1` (configuration not stated) it is 17.2 µM. For `COc1ccc(C2CC(=O)C3=C(C2)Nc2ccccc2NC3c2ccc(NC(C)=O)cc2)cc1` (configuration not stated) the value was > 100 µM (inactive); for `O=C1CC(c2ccccc2)CC2=C1C(c1ccc(Cl)cc1Cl)Nc1ccccc1N2` (configuration not stated), > 100 µM (inactive); for `COc1ccc(C2CC(=O)C3=C(C2)Nc2ccccc2NC3c2c(F)cccc2F)cc1` (configuration not stated), 33 µM. For the compound `COc1ccc(C2CC(=O)C3=C(C2)Nc2ccccc2NC3c2cccc(Br)c2)cc1OC` (configuration not stated), the EC50 is 16.9 µM. The figure for `CCOc1cc(C2Nc3ccccc3NC3=C2C(=O)CC(c2ccc(OC)cc2)C3)cc(Br)c1O` (configuration not stated) is 18 µM. In the case of `COc1ccc(C2CC(=O)C3=C(C2)Nc2ccccc2NC3c2cccc(Cl)c2)cc1` (configuration not stated), the EC50 was 20.7 µM. With `COc1ccc(C2CC(=O)C3=C(C2)Nc2ccccc2NC3c2ccccc2[N+](=O)[O-])cc1OC` (configuration not stated), the EC50 was 36.8 µM. As for `CCCOc1ccc(C2Nc3ccccc3NC3=C2C(=O)CC(c2ccc(OC)c(OC)c2)C3)cc1` (configuration not stated), the EC50 was 16.2 µM. For `COc1ccc(C2CC(=O)C3=C(C2)Nc2ccccc2NC3c2ccc(C)cc2)cc1OC` (configuration not stated) the value was 28.1 µM. The figure for `COc1ccc(C2Nc3ccccc3NC3=C2C(=O)CC(c2ccc(Cl)cc2)C3)cc1` (configuration not stated) is 11.1 µM. For `CCN(CC)c1ccc(C2Nc3ccccc3NC3=C2C(=O)CC(c2ccc(OC)cc2)C3)cc1` (configuration not stated) the value was 8.53 µM; for `CCN(CC)c1ccc(C2Nc3ccccc3NC3=C2C(=O)CC(c2ccccc2)C3)cc1` (configuration not stated), 7.15 µM; for `COc1ccc(C2CC(=O)C3=C(C2)Nc2ccccc2NC3c2cccc(C(F)(F)F)c2)cc1OC` (configuration not stated), 16.6 µM. Take `COc1ccc(C2CC(=O)C3=C(C2)Nc2ccccc2NC3c2ccc(C(C)C)cc2)cc1` (configuration not stated): the EC50 is 8.22 µM. With `CCCCOc1ccccc1C1Nc2ccccc2NC2=C1C(=O)CC(c1ccccc1)C2` (configuration not stated), the EC50 was 13.2 µM. The figure for `Cc1ccc(C2Nc3ccccc3NC3=C2C(=O)CC(c2ccccc2)C3)cc1` (configuration not stated) is 19.2 µM; for `COc1ccc(C2CC(=O)C3=C(C2)Nc2ccccc2NC3c2ccccc2Cl)cc1OC` (configuration not stated) it is 40.3 µM.

For `COc1ccc(C2CC(=O)C3=C(C2)Nc2ccccc2NC3c2ccncc2)cc1OC` (configuration not stated), the EC50 was > 100 µM (inactive).

As to `CCOc1cccc(C2Nc3ccccc3NC3=C2C(=O)CC(c2ccc(OC)cc2)C3)c1` (configuration not stated), the EC50 is 20.4 µM.

As for `O=C1CC(c2ccccc2)CC2=C1C(c1c(F)cccc1Cl)Nc1ccccc1N2` (configuration not stated), the EC50 was 18.1 µM. The figure for `COc1ccc(C2CC(=O)C3=C(C2)Nc2ccccc2NC3c2ccc(-c3ccccc3)cc2)cc1OC` (configuration not stated) is 14.7 µM; for `CSc1ccc(C2Nc3ccccc3NC3=C2C(=O)CC(c2ccccc2)C3)cc1` (configuration not stated) it is 13.9 µM; for `COc1ccc(C2CC(=O)C3=C(C2)Nc2ccccc2NC3c2ccc(O)cc2)cc1` (configuration not stated) it is > 100 µM (inactive).

On to `Cc1ccc(C2Nc3ccccc3NC3=C2C(=O)CC(c2ccc(Cl)cc2)C3)cc1` (configuration not stated), for which the EC50 is 9.76 µM.
